Holding throughout (assay): Post-emergence herbicidal action against harmful plants (greenhouse)
Holding throughout (assay type): in vivo

In assay [1] the test system is Sorghum halepense (SORHA). On the procedure:
(§1) Seeds of monocotyledonous and dicotyledonous weed and crop plants are laid out in sandy loam soil in wood-fibre pots, covered with soil and cultivated in a greenhouse under good growth conditions. 2 to 3 weeks after sowing, the test plants are treated at the one-leaf stage. The compounds of the invention, formulated in the form of wettable powders (WP) or as emulsion concentrates (EC), are then sprayed onto the green parts of the plants in the form of an aqueous suspension or emulsion at a water application rate equivalent to 600 to 800 l/ha, with addition of 0.2% wetting agent. After the test plants have been left to stand in the greenhouse under optimal growth conditions for about 3 weeks, the action of the preparations is assessed visually in comparison to untreated controls (herbicidal action in percent (%): 100% activity=the plants have died, 0% activity=like control plants). […] The tables below illustrate, in an illustrative manner, the post-emergence herbicidal action of the compounds of the invention, the herbicidal activity being stated in percent.
(§2) In the tables that follow, the abbreviations mean the following: • E: means the synergism value to be expected according to the Colby formula. • Δ SYN: means the difference between the actual and expected synergism value. • DAT: means days after treatment.

Assay [2] deals with Brachiaria platyphylla (BRAPP). How it is done:
as §1, §2

Assay [3] relates to Polygonum convolvulus (POLCO).
For the next assay, the system named is Setaria viridis (SETVI). How it is done:
as §1, with “[…],” for “left to stand in the greenhouse under optimal growth conditions for about 3 weeks,”
as §2

In assay [4] the test system is Erigeron bonariensis (ERIBO). How it is done: as §1, with “[…],” for “left to stand in the greenhouse under optimal growth conditions for about 3 weeks,”
as §2

The test system of assay [5] is Abutilon theophrasti (ABUTH). On the procedure:
as §1, with “[…],” for “left to stand in the greenhouse under optimal growth conditions for about 3 weeks,”
as §2

Assay [6] relates to Pharbitis purpurea (PHBPU).
For the next assay, the system named is Emex australis (EMEAU). How it is done: as §1, §2
The next assay relates to Cyperus iria (CYPIR). On the procedure:
as §1, with “[…],” for “left to stand in the greenhouse under optimal growth conditions for about 3 weeks,”
as §2

Another assay deals with Solanum nigrum (SOLNI). How it is done:
as §1, with “[…],” for “left to stand in the greenhouse under optimal growth conditions for about 3 weeks,”
as §2

Assay [7] deals with Euphorbia heterophylla (EPHHL). The following applies: EPHHL 21 DAT. How it is done:
as §1, §2

The values below come from patent US20260068885A1, “HERBICIDAL COMPOSITIONS” (BAYER AKTIENGESELLSCHAFT, priority 2022, published 2026).

Turning to `COc1ccc(-n2nc(C)cc(C(=O)C3C(=O)CCCC3=O)c2=O)cc1OC` [dioxopyritrione], the “Herbicidal efficacy [%] against SORHA 10 DAT” value in assay [1] (application rate 2.5 g a.i./ha) is 20%; in [1] (application rate 10 g a.i./ha) it was 30%. Further, the results for the “Herbicidal efficacy [%] against SORHA 21 DAT” value in assay [1] (application rate 2.5 g a.i./ha) and in assay [1] (application rate 10 g a.i./ha) were 0% and 10%, respectively. Also, the Herbicidal efficacy amounted to 40% in assay [2] (BRAPP 10 DAT, 2.5 g a.i./ha); 70% in assay [2] (BRAPP 10 DAT, 10 g a.i./ha); 20% in [2] (BRAPP 21 DAT, 2.5 g a.i./ha); 30% in assay [2] (BRAPP 21 DAT, 10 g a.i./ha); 80% in assay [3] (POLCO 10 DAT, 2.5 g a.i./ha); 80% in [3] (POLCO 10 DAT, 10 g a.i./ha). In addition, the Herbicidal efficacy is listed as 70% in assay [3] (POLCO 21 DAT, 10 g a.i./ha); 10% in the assay on Setaria viridis (SETVI) (SETVI 10 DAT, 2.5 g a.i./ha); 20% with Setaria viridis (SETVI) (SETVI 10 DAT, 10 g a.i./ha); 10% in the assay on Setaria viridis (SETVI) (SETVI 21 DAT, 2.5 g a.i./ha); 20% with Setaria viridis (SETVI) (SETVI 21 DAT, 10 g a.i./ha); 90% in [4] (ERIBO 10 DAT, 10 g a.i./ha). Also, the Herbicidal efficacy worked out at 88% in assay [4] (ERIBO 21 DAT, 10 g a.i./ha); 80% in [5] (ABUTH 21 DAT, 10 g a.i./ha); 20% in assay [6] (PHBPU 21 DAT, 2.5 g a.i./ha).
Take `FC(F)c1cc(-c2c(Cl)cccc2Oc2ncc(Cl)cn2)on1` [rimisoxafen]: the “Herbicidal efficacy [%] against SORHA 10 DAT” value in [1] (application rate 20 g a.i./ha) is given as 10%. Moreover, in [1] (application rate 20 g a.i./ha), the “Herbicidal efficacy [%] against SORHA 21 DAT” value is 10%. The Herbicidal efficacy in the assay with Emex australis (EMEAU) (EMEAU 10 DAT, 80 g a.i./ha) is recorded as 88%; with Emex australis (EMEAU) (EMEAU 21 DAT, 80 g a.i./ha), 80%; in assay [2] (BRAPP 10 DAT, 20 g a.i./ha) it was 30%; in assay [2] (BRAPP 21 DAT, 20 g a.i./ha), 20%; in assay [3] (POLCO 21 DAT, 20 g a.i./ha) it was 60%; in [3] (POLCO 21 DAT, 80 g a.i./ha) it was 88%. The Herbicidal efficacy is 30% with Setaria viridis (SETVI) (SETVI 21 DAT, 20 g a.i./ha); 10% in [4] (ERIBO 21 DAT, 20 g a.i./ha); 88% in [5] (ABUTH 10 DAT, 20 g a.i./ha); 40% in assay [5] (ABUTH 21 DAT, 20 g a.i./ha); 88% in the assay with Cyperus iria (CYPIR) (CYPIR 21 DAT, 20 g a.i./ha); 30% in assay [6] (PHBPU 10 DAT, 20 g a.i./ha). Besides, the Herbicidal efficacy in [6] (PHBPU 21 DAT, 20 g a.i./ha) was 20%. In the assay with Solanum nigrum (SOLNI) (application rate 80 g a.i./ha), the “Herbicidal efficacy [%] against SOLNI 10 DAT” value is on record as 88%. For the same molecule, the “Herbicidal efficacy [%] against SOLNI 21 DAT” value with Solanum nigrum (SOLNI) (application rate 80 g a.i./ha) is on record as 80%.
In the case of `Nc1c(F)c(-c2ccc3cc[nH]c3c2F)nc(C(=O)O)c1Cl` [P3, 4-amino-3-chloro-5-fluoro-6-(7-fluoro-1H-indol-6-yl)pyridine-2-carboxylic acid], the entries for the “Herbicidal efficacy [%] against SORHA 10 DAT” value in assay [1] (application rate 0.3 g a.i./ha) and in assay [1] (application rate 1.2 g a.i./ha) were 30% and 60%, respectively. Moreover, the “Herbicidal efficacy [%] against SORHA 21 DAT” value in [1] (application rate 0.3 g a.i./ha) was determined as 10%; in [1] (application rate 1.2 g a.i./ha) it was 30%. For the same molecule, the Herbicidal efficacy in the assay on Emex australis (EMEAU) (EMEAU 21 DAT, 1.2 g a.i./ha) is listed as 70%; in [2] (BRAPP 10 DAT, 0.3 g a.i./ha), 70%; in assay [2] (BRAPP 21 DAT, 0.3 g a.i./ha), 60%; in [2] (BRAPP 21 DAT, 1.2 g a.i./ha) it was 75%; in the assay with Setaria viridis (SETVI) (SETVI 21 DAT, 0.3 g a.i./ha) it was 70%; in [5] (ABUTH 21 DAT, 0.3 g a.i./ha), 60%. Besides, the Herbicidal efficacy is reported as 60% in assay [5] (ABUTH 21 DAT, 1.2 g a.i./ha) and 85% in the assay with Solanum nigrum (SOLNI) (SOLNI 21 DAT, 1.2 g a.i./ha).
With `CCOC(=O)C1(C)CC(c2cc(-n3c(=O)cc(C(F)(F)F)n(C)c3=O)c(F)cc2Cl)=NO1` (centres unmarked) [P4, ethyl 3-{2-chloro-4-fluoro-5-[3-methyl-2,6-dioxo-4-(trifluoromethyl)-3,6-dihydropyrimidin-1(2H)-yl]phenyl}-5-methyl-4,5-dihydro-1,2-oxazole-5-carboxylate], the Herbicidal efficacy in [7] (1 g a.i./ha) was determined as 80%; in the assay with Emex australis (EMEAU) (EMEAU 21 DAT, 1 g a.i./ha) it was 70%; with Setaria viridis (SETVI) (SETVI 10 DAT, 1 g a.i./ha), 88%; with Setaria viridis (SETVI) (SETVI 21 DAT, 1 g a.i./ha), 80%.
In the case of `CN1C[C@H](c2cccc(C(F)(F)F)c2)[C@@H](C(=O)Nc2ccccc2F)C1=O` [tetflupyrolimet], in assay [1] (application rate 100 g a.i./ha), the “Herbicidal efficacy [%] against SORHA 10 DAT” value turned out to be 10%. For the same molecule, in assay [1] (application rate 100 g a.i./ha), the “Herbicidal efficacy [%] against SORHA 21 DAT” value is 0%. Also, the Herbicidal efficacy in assay [2] (BRAPP 21 DAT, 400 g a.i./ha) was found to be 70%; in assay [3] (POLCO 10 DAT, 400 g a.i./ha), 10%; in assay [3] (POLCO 21 DAT, 100 g a.i./ha) it was 0%; in [3] (POLCO 21 DAT, 400 g a.i./ha) it was 0%; in assay [5] (ABUTH 10 DAT, 400 g a.i./ha) it was 0%; in assay [5] (ABUTH 21 DAT, 400 g a.i./ha) it was 0%. The Herbicidal efficacy in the assay on Cyperus iria (CYPIR) (CYPIR 10 DAT, 400 g a.i./ha) is on record as 0%; in the assay with Cyperus iria (CYPIR) (CYPIR 21 DAT, 400 g a.i./ha), 0%. For the same molecule, the “Herbicidal efficacy [%] against SOLNI 10 DAT” value with Solanum nigrum (SOLNI) (application rate 400 g a.i./ha) is 10%. Further, the “Herbicidal efficacy [%] against SOLNI 21 DAT” value in the assay with Solanum nigrum (SOLNI) (application rate 400 g a.i./ha) is given as 0%.
For `COc1c(Cl)ccc(-c2nc(C(=O)O)c(Cl)c(N)c2F)c1F` [florpyrauxifen], the Herbicidal efficacy is recorded as 90% in [7] (0.3 g a.i./ha); 75% in the assay with Emex australis (EMEAU) (EMEAU 21 DAT, 1.2 g a.i./ha); 75% in [2] (BRAPP 10 DAT, 0.3 g a.i./ha); 60% in [2] (BRAPP 21 DAT, 0.3 g a.i./ha); 90% in assay [3] (POLCO 10 DAT, 1.2 g a.i./ha); 90% in assay [3] (POLCO 21 DAT, 1.2 g a.i./ha). Besides, the Herbicidal efficacy in the assay with Setaria viridis (SETVI) (SETVI 10 DAT, 0.3 g a.i./ha) worked out at 30%; in the assay with Setaria viridis (SETVI) (SETVI 21 DAT, 0.3 g a.i./ha), 40%; in [5] (ABUTH 21 DAT, 0.3 g a.i./ha), 90%. Further, the “Herbicidal efficacy [%] against SORHA 10 DAT” value in assay [1] (application rate 0.3 g a.i./ha) worked out at 10%.
